For assay [1], the system named is Phosphorylated Ribosomal Protein S6 (RPS6) in THP-1 cells. Kind of assay: THP-1 RPS6 ELISA assay. Particulars: serum starved, 2 h compound, 10 nM MCP-1 for 15 min, phospho-RPS6 ELISA, read-out: PI3Kγ_THP1_RPS6_ELISA IC50. Type of assay: cell-based, Human. How it is done:
Example A. THP-1 RPS6 ELISA Assay
To measure the Phosphorylated Ribosomal Protein S6 (RPS6) in cell lysates, THP-1 cells (Human Acute Monocytic Leukemia) are purchased from ATCC (Manassas, Va.) and maintained in RPMI with 10% FBS (Gibco/Life Technologies, Carlsbad, Calif.). For the assay, THP-1 cells are serum starved overnight in RPMI, then plated in RPMI (2×10^5 cells/well in 90 μL) into 96-well flat-bottom tissue culture treated plates (Corning, Corning, N.Y.), in the presence or absence of a concentration range of test compounds. Covered plates are incubated for 2 hours at 37° C., 5% CO2 then treated with or without 10 nM MCP-1 (MYBioSource, San Diego, Calif.) for 15 minutes at 37° C., 5% CO2. Plates are centrifuged at 1600 RPM and supernatants are removed. Cells are lysed in Lysis Buffer (Cell Signaling, Danvers, Mass.) with Protease Inhibitor (Calbiochem/EMD, Germany), PMSF (Sigma, St Louis Mo.), HALTS (Thermo Fisher, Rockford, Ill.) for 30 min on wet ice. Cell lysates are frozen at −80° C. before testing. The lysates are tested in the Human/Mouse/Rat Phospho-RPS6 ELISA (R&D Systems, Inc. Minn, Minn.). The plate is measured using a microplate reader (SpectraMax M5—Molecular Devices, LLC Sunnyvale, Calif.) set to 450 nm with a wavelength correction of 540. IC50 determination is performed by fitting the curve of inhibitor percent inhibition versus the log of the inhibitor concentration using the GraphPad Prism 5.0 software.

Assay [2] deals with PI3Kγ (p110γ) Recombinant Human Protein (Homo sapiens (Human), UniProt P48736). Kind of assay: PI3K-γ scintillation proximity assay. Particulars: 20 μM PIP2, 2 μM ATP, 13 nM PI3Kγ, 120 min, room temperature. The assay is classed as biochemical. An excerpt: Example B. PI3K-γ Scintillation Proximity Assay
[γ-^33P]ATP (10 mCi/mL) and Wheat Germ Agglutinin (WGA) YSi SPA Scintillation Beads was purchased from PerkinElmer (Waltham, Mass.). Lipid kinase substrate, D-myo-Phosphatidylinositol 4,5-bisphosphate (PtdIns(4,5)P2)D (+)-sn-1,2-di-O-octanoylglyceryl, 3-O-phospho linked (PIP2), CAS 204858-53-7, was purchased from Echelon Biosciences (Salt Lake City, Utah). PI3Kγ (p110γ) Recombinant Human Protein was purchased from Life technology (Grand Island, N.Y.). ATP, MgCl2, DTT, EDTA, MOPS and CHAPS were purchased from SigmaAldrich (St. Louis, Mo.).
(§1) The kinase reaction was conducted in polystyrene 384-well Greiner Bio-one white plate from Thermo Fisher Scientific in a final volume of 25 μL. Inhibitors were first diluted serially in DMSO and added to the plate wells before the addition of other reaction components. The final concentration of DMSO in the assay was 2%. The PI3Kγ assay was carried out at room temperature in 20 mM MOPS, pH 6.7, 10 mM MgCl2, 5 mM DTT and CHAPS 0.03%. Reactions were initiated by the addition of ATP, the final reaction mixture consisted of 20 μM PIP2, 2 μM ATP, 0.5 μCi [γ-^33P] ATP, 13 nM PI3Kγ. Reactions were incubated for 120 min and terminated by the addition of 40 μL SPA beads suspended in quench buffer: 163 mM potassium phosphate pH 7.8, 20% glycerol, 25 mM EDTA. The final concentration of SPA beads is 1.0 mg/mL. After the plate sealing, plates were shaken overnight at room temperature and centrifuged at 1500 rpm for 10 min, the radioactivity of the product was determined by scintillation counting on Topcount (Perkin-Elmer). IC50 determination was performed by fitting the curve of percent of the solvent control activity versus the log of the inhibitor concentration using the GraphPad Prism 6.0 software.

Assay [3] addresses PI3Kδ (p110δ/p85α) Recombinant Human Protein (Homo sapiens (Human), UniProt O00329). Kind of assay: PI3Kδ scintillation proximity assay. The assay is classed as biochemical. The settings on record: 20 μM PIP2, 2 μM ATP, 3.4 nM PI3Kδ, 120 min, room temperature; read-out: PI3Kδ IC50. On the procedure:
PI3Kδ Scintillation Proximity Assay
[γ-^33P]ATP (10 mCi/mL) and Wheat Germ Agglutinin (WGA) YSi SPA Scintillation Beads was purchased from PerkinElmer (Waltham, Mass.). […] PI3Kδ (p110δ/p85α) Recombinant Human Protein was purchased from Eurofins (St Charles, Mo.). ATP, MgCl2, DTT, EDTA, MOPS and CHAPS were purchased from SigmaAldrich (St. Louis, Mo.).
as §1, with “PI3Kδ” for “PI3Kγ”, “ATP, 13 nM PI3Kγ. Reactions were incubated for 120 min and terminated by the addition of 40 μL SPA beads suspended in quench buffer: 163 mM potassium phosphate pH 7.8, 20% glycerol, 25 mM EDTA.” left out, “(PerkinElmer).” for “(Perkin-Elmer).”

The mark [4] stands for this setting: Homo sapiens, THP-1, THP-1 cells.

The structures appear in SMILES notation. Where a name gives a salt, the structure may show the parent alone. Read-outs that look alike come from different tables or passages of the source. Some results are limits rather than exact numbers.

Chain of PI3Kγ (p110γ) Recombinant Human Protein (P48736 whole entry): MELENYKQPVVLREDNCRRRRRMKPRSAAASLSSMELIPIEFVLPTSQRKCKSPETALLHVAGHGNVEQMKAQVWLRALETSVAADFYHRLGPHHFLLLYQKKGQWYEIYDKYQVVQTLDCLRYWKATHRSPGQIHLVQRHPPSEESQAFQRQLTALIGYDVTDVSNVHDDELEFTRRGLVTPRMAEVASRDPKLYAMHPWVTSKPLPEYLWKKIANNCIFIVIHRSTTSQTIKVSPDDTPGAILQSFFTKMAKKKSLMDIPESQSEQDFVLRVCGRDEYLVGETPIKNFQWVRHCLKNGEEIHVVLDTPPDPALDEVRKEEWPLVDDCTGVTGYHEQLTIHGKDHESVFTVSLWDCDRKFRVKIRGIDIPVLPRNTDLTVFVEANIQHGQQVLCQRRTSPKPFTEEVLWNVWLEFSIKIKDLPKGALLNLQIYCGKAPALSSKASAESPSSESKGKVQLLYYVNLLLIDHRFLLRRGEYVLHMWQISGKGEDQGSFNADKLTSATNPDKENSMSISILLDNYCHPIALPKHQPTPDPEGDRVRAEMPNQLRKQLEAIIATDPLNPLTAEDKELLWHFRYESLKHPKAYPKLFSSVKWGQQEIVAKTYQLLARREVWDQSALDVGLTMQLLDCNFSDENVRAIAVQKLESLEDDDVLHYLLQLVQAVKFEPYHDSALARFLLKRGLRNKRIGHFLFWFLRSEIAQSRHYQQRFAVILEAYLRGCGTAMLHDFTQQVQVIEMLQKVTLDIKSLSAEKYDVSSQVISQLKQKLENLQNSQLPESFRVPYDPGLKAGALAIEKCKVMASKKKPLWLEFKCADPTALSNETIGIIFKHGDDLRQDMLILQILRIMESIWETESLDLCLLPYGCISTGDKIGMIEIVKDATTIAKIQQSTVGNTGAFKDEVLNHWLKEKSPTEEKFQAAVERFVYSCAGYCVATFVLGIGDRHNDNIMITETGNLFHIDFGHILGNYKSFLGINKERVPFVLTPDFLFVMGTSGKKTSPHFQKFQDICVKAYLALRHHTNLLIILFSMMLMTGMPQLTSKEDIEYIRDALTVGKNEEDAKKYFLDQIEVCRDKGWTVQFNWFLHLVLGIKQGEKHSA
Chain of PI3Kδ (p110δ/p85α) Recombinant Human Protein (O00329 whole entry): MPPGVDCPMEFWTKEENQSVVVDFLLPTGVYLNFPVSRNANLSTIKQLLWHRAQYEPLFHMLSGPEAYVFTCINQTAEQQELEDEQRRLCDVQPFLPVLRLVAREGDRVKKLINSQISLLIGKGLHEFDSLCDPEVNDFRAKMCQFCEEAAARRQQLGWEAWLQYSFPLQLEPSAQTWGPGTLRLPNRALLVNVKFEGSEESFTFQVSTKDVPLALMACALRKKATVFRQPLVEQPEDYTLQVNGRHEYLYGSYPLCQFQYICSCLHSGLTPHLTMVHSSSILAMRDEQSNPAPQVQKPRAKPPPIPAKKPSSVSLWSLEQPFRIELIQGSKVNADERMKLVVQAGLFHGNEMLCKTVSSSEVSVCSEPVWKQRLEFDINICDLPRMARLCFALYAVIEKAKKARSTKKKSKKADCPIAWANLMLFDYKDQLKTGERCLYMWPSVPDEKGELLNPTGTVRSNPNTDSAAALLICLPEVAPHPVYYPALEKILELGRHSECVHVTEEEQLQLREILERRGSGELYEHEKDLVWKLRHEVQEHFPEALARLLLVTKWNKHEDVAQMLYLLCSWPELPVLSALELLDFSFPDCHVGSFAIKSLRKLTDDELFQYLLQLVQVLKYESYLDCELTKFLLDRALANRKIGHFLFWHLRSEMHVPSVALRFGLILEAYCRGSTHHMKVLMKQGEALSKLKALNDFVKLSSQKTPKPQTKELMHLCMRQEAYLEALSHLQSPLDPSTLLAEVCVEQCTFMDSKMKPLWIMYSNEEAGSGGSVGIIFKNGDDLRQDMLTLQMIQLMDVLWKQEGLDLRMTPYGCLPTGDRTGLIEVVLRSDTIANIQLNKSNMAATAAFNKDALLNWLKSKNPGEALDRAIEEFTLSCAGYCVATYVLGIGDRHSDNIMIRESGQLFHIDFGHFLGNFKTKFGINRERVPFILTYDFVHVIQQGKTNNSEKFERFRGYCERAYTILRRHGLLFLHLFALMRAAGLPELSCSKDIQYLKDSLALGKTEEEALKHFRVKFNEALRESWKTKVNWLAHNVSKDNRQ
Chain of PI3Kδ (p110δ/p85α) Recombinant Human Protein (P27986 whole entry partner): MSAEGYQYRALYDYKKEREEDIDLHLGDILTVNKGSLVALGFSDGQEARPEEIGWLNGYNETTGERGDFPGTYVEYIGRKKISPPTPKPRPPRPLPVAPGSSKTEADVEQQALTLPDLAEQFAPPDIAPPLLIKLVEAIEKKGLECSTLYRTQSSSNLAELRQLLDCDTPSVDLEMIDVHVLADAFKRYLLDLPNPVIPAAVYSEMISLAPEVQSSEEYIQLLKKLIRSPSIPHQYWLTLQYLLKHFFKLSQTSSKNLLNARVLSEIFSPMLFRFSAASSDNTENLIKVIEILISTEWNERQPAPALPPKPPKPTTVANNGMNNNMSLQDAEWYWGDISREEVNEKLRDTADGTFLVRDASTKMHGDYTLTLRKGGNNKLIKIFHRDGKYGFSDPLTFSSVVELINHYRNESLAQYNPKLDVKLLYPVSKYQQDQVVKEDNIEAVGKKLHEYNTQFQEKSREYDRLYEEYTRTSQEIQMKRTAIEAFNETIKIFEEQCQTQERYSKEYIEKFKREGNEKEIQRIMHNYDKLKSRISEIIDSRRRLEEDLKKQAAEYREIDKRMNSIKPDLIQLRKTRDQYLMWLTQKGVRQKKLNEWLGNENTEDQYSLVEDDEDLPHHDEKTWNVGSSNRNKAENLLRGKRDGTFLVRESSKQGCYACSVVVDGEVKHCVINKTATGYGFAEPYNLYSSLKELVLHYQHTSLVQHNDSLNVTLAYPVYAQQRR

On to `Cc1ccc(C(C)(O)C(F)(F)F)cc1-c1cnc2c(N)nc(-c3ccnc(CO)c3)cn12` (single isomer, unassigned) [Example 11, 2-(3-(8-amino-6-(2-(hydroxymethyl)pyridin-4-yl)imidazo[1,2-a]pyrazin-3-yl)-4-methylphenyl)-1,1,1-trifluoropropan-2-ol], for which the figures for the half-maximal inhibitory concentration (IC50) in assay [1] (setting [4]), in assay [2] and in assay [3] were 100 to 500 nM, less than 100 nM and less than 100 nM, respectively.

In the case of `Cc1ccc(C(C)(O)C(F)(F)F)cc1-c1cnc2c(N)nc(-c3ccnc(CO)c3)cn12` (single isomer, unassigned) [Example 12, 2-(3-(8-amino-6-(2-(hydroxymethyl)pyridin-4-yl)imidazo[1,2-a]pyrazin-3-yl)-4-methylphenyl)-1,1,1-trifluoropropan-2-ol], the half-maximal inhibitory concentration (IC50) in assay [1] (THP-1 cells), in assay [2] and in assay [3] was less than 100 nM in each case.

For `CNCCC(O)(c1ccc(C)c(-c2cnc3c(N)nc(C(F)(F)F)cn23)c1)C(F)(F)F` (single isomer, unassigned) [Example 15, 2-(3-(8-Amino-6-(trifluoromethyl)imidazo[1,2-a]pyrazin-3-yl)-4-methylphenyl)-1,1,1-trifluoro-4-(methylamino)butan-2-ol], the IC50 is 100 to 500 nM in assay [1] (THP-1 cells), less than 100 nM in assay [2] and 100 to 500 nM in assay [3].

As to `CNCCC(O)(c1ccc(C)c(-c2cnc3c(N)nc(C(F)(F)F)cn23)c1)C(F)(F)F` (single isomer, unassigned) [Example 16, 2-(3-(8-Amino-6-(trifluoromethyl)imidazo[1,2-a]pyrazin-3-yl)-4-methylphenyl)-1,1,1-trifluoro-4-(methylamino)butan-2-ol], the IC50 in assay [1] (THP-1 cells) was 500 to 1000 nM; in assay [2], less than 100 nM; in assay [3], 100 to 500 nM.

Turning to `[2H]C([2H])([2H])n1nccc1-c1cn2c(-c3cc(C(C)(O)C(F)F)ccc3C)cnc2c(N)n1` (single isomer, unassigned) [Example 25, 2-(3-(8-Amino-6-(1-(methyl-d3)-1H-pyrazol-5-yl)imidazo[1,2-a]pyrazin-3-yl)-4-methylphenyl)-1,1-difluoropropan-2-ol trifluoroacetate salt], the IC50 was 100 to 500 nM in assay [1] (setting [4]), less than 100 nM in assay [2] and 100 to 500 nM in assay [3].

Turning to `Cc1ccc(C(C)(O)C(F)F)cc1-c1cnc2c(N)nc(C(F)(F)F)cn12` (single isomer, unassigned) [Example 26, 2-(3-(8-Amino-6-(trifluoromethyl)imidazo[1,2-a]pyrazin-3-yl)-4-methylphenyl)-1,1-difluoropropan-2-ol], the concentration for half-maximal inhibition (IC50) in assay [1] (THP-1 cells) was 500 to 1000 nM; in assay [2], less than 100 nM; in assay [3], 500 to 2000 nM.

With `Cc1ccc(C(C)(O)C(F)F)cc1-c1cnc2c(N)nc(C(F)(F)F)cn12` (single isomer, unassigned) [Example 27, 2-(3-(8-Amino-6-(trifluoromethyl)imidazo[1,2-a]pyrazin-3-yl)-4-methylphenyl)-1,1-difluoropropan-2-ol], the 50% inhibitory concentration (IC50) is 100 to 500 nM in assay [1] (THP-1 cells), less than 100 nM in assay [2] and 100 to 500 nM in assay [3].

`Cc1ccc(C(C)(O)C(F)F)cc1-c1cnc2c(N)nc(-c3ccnn3C)cn12` (single isomer, unassigned) [Example 29, 2-(3-(8-Amino-6-(1-methyl-1H-pyrazol-5-yl)imidazo[1,2-a]pyrazin-3-yl)-4-methylphenyl)-1,1-difluoropropan-2-ol 1.2 trifluoroacetate salt]: the half-maximal inhibitory concentration (IC50) in assay [1] (setting [4]) was 100 to 500 nM; in assay [2], less than 100 nM; in assay [3], 100 to 500 nM.

With `Cc1ccc(C(C)(O)C(F)F)cc1-c1cnc2c(N)nc(-c3ccnn3C)cn12` (single isomer, unassigned) [Example 30, 2-(3-(8-Amino-6-(1-methyl-1H-pyrazol-5-yl)imidazo[1,2-a]pyrazin-3-yl)-4-methylphenyl)-1,1-difluoropropan-2-ol], the IC50 was 100 to 500 nM in assay [1] (THP-1 cells), less than 100 nM in assay [2] and 100 to 500 nM in assay [3].

Take `Cc1ccc(C(C)(O)C(F)F)cc1-c1cnc2c(N)nc(-c3ccnc(CO)c3)cn12` (single isomer, unassigned) [Example 44, 2-(3-(8-Amino-6-(2-(hydroxymethyl)pyridin-4-yl)imidazo[1,2-a]pyrazin-3-yl)-4-methylphenyl)-1,1-difluoropropan-2-ol]: the IC50 in assay [1] (setting [4]), in assay [2] and in assay [3] was less than 100 nM in each case.

As to `Cc1ccc(C(C)(O)C(F)F)cc1-c1cnc2c(N)nc(-c3ccnc(CO)c3)cn12` (single isomer, unassigned) [Example 45, 2-(3-(8-Amino-6-(2-(hydroxymethyl)pyridin-4-yl)imidazo[1,2-a]pyrazin-3-yl)-4-methylphenyl)-1,1-difluoropropan-2-ol], the IC50 in assay [1] (THP-1 cells) is 100 to 500 nM; in assay [2], less than 100 nM; in assay [3], less than 100 nM.

Turning to `Cc1ccc(C(C)(O)C(F)F)cc1-c1cnc2c(N)nc(-c3ccnn3C)nn12` (single isomer, unassigned) [Example 51, 2-(3-(4-Amino-2-(1-methyl-1H-pyrazol-5-yl)imidazo[2,1-f][1,2,4]triazin-7-yl)-4-methylphenyl)-1,1-difluoropropan-2-ol trifluoroacetate salt], the half-inhibitory concentration (IC50) in assay [1] (setting [4]), in assay [2] and in assay [3] was less than 100 nM throughout.

Turning to `Cc1ncc(-c2nc(N)c3ncc(-c4cc(C(C)(O)C(F)F)ccc4C)n3n2)o1` (single isomer, unassigned) [Example 52, 2-(3-(4-Amino-2-(2-methyloxazol-5-yl)imidazo[2,1-f][1,2,4]triazin-7-yl)-4-methylphenyl)-1,1-difluoropropan-2-ol trifluoroacetate salt], the half-maximal inhibitory concentration (IC50) is 100 to 500 nM in assay [1] (setting [4]), less than 100 nM in assay [2] and 100 to 500 nM in assay [3].

Consider `Cc1ccc(C(C)(O)C(F)(F)C(F)(F)F)cc1-c1cnc2c(N)nc(C(F)(F)F)cn12` (single isomer, unassigned) [Example 60, 2-(3-(8-Amino-6-(trifluoromethyl)imidazo[1,2-a]pyrazin-3-yl)-4-methylphenyl)-3,3,4,4,4-pentafluorobutan-2-ol], for which the 50% inhibitory concentration (IC50) is greater than 1000 nM in assay [1] (setting [4]), less than 100 nM in assay [2] and 500 to 2000 nM in assay [3].

(Values after US10738057B2, “Tertiary alcohols as PI3K-γ inhibitors” (Incyte Corporation, priority 2017, dated 2020).)
